Tested on: 422866-222-R5-J1-PDC complex spheroids viability
Experiment: Anticancer human tumor 422866-222-R5-J1-PDC patient-derived pancreatic adenocarcinoma cell line growth inhibition [RAS]
Conditions: for IC50: curve of first compound; for viability, T/C: stronger effect = lower value; active = viability on the fitted dose curve at most 10% of control; inactive = the rest
Procedure, shortened: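 Agents were tested in combination matrices in half-log decrements from a top concentration at or near clinical Cmax (10 microM if undetermined). Targets were multi-cell spheroids of tumour lines plus HUVEC and MSC stromal cells.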
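Note: spheroids exposed to compounds for 7 days.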
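Throughout, for viability, T/C: 100% = DMSO vehicle control viability.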

CCc1c2c(nc3ccc(O)cc13)-c1cc3c(c(=O)n1C2)COC(=O)[C@]3(O)CC + C#Cc1c(F)ccc2cc(O)cc(-c3ncc4c(N5CC6CCC(C5)N6)nc(OCC56CCCN5CC(F)C6)nc4c3F)c12
2.85 nM: IC50 (second compound 0.0316 µM)
2.74 nM: IC50 (second compound 0.1 µM)
inactive: viability, T/C (second compound 0.0316 µM, first compound 0.000949 µM) 80.6% | viability, T/C (second compound 0.0316 µM, first compound 0.003 µM) 49.4% | viability, T/C (second compound 0.0316 µM, first compound 0.00949 µM) 39.9% | viability, T/C (second compound 0.0316 µM, first compound 0.03 µM) 41.9% | viability, T/C (second compound 0.0316 µM, first compound 0.0949 µM) 48.5% | viability, T/C (second compound 0.0316 µM, first compound 0.3 µM) 45.5% | viability, T/C (second compound 0.1 µM, first compound 0.000949 µM) 75.2% | viability, T/C (second compound 0.1 µM, first compound 0.003 µM) 49.4% | viability, T/C (second compound 0.1 µM, first compound 0.00949 µM) 35.2% | viability, T/C (second compound 0.1 µM, first compound 0.03 µM) 49.8% | viability, T/C (second compound 0.1 µM, first compound 0.0949 µM) 58.4% | viability, T/C (second compound 0.1 µM, first compound 0.3 µM) 36.1% | viability, T/C (second compound 0.316 µM, first compound 0.000949 µM) 65.4% | viability, T/C (second compound 0.316 µM, first compound 0.003 µM) 36.4% | viability, T/C (second compound 0.316 µM, first compound 0.00949 µM) 49.8% | viability, T/C (second compound 0.316 µM, first compound 0.03 µM) 56.5% | viability, T/C (second compound 0.316 µM, first compound 0.0949 µM) 49.2% | viability, T/C (second compound 0.316 µM, first compound 0.3 µM) 34.7% | viability, T/C (second compound 1 µM, first compound 0.000949 µM) 48.6% | viability, T/C (second compound 1 µM, first compound 0.003 µM) 35.9% | viability, T/C (second compound 1 µM, first compound 0.00949 µM) 35.4% | viability, T/C (second compound 1 µM, first compound 0.03 µM) 38.2% | viability, T/C (second compound 1 µM, first compound 0.0949 µM) 53.3% | viability, T/C (second compound 1 µM, first compound 0.3 µM) 31.2% | viability, T/C (second compound 3.16 µM, first compound 0.000949 µM) 26.3% | viability, T/C (second compound 3.16 µM, first compound 0.003 µM) 28.7% | viability, T/C (second compound 3.16 µM, first compound 0.00949 µM) 22.4% | viability, T/C (second compound 3.16 µM, first compound 0.03 µM) 22.9% | viability, T/C (second compound 3.16 µM, first compound 0.0949 µM) 25.6% | viability, T/C (second compound 3.16 µM, first compound 0.3 µM) 25.1% | viability, T/C (second compound 10 µM, first compound 0.000949 µM) 23% | viability, T/C (second compound 10 µM, first compound 0.003 µM) 21% | viability, T/C (second compound 10 µM, first compound 0.00949 µM) 20.7% | viability, T/C (second compound 10 µM, first compound 0.03 µM) 18.1% | viability, T/C (second compound 10 µM, first compound 0.0949 µM) 19.5% | viability, T/C (second compound 10 µM, first compound 0.3 µM) 13.5%
95.2 nM: IC50 (second compound 0.316 µM)
< 0.949 nM: IC50 (second compound 1 µM) | IC50 (second compound 3.16 µM) | IC50 (second compound 10 µM)

C=CC(=O)Nc1cc(Nc2nccc(-c3cn(C)c4ccccc34)n2)c(OC)cc1N(C)CCN(C)C + C=CC(=O)N1CCN(c2nc(OCC3CCCN3C)nc3c(F)c(-c4nc(N)cc(C)c4C(F)(F)F)c(Cl)cc23)C(C)C1
< 3.16 nM: IC50 (second compound 0.00316 µM) | IC50 (second compound 0.01 µM) | IC50 (second compound 0.0316 µM) | IC50 (second compound 0.1 µM) | IC50 (second compound 0.316 µM) | IC50 (second compound 1 µM)
inactive: viability, T/C (second compound 0.00316 µM, first compound 0.00316 µM) 26.3% | viability, T/C (second compound 0.00316 µM, first compound 0.01 µM) 28.2% | viability, T/C (second compound 0.00316 µM, first compound 0.0316 µM) 29% | viability, T/C (second compound 0.00316 µM, first compound 0.1 µM) 28% | viability, T/C (second compound 0.00316 µM, first compound 0.316 µM) 18.5% | viability, T/C (second compound 0.00316 µM, first compound 1 µM) 12.4% | viability, T/C (second compound 0.01 µM, first compound 0.00316 µM) 34.1% | viability, T/C (second compound 0.01 µM, first compound 0.01 µM) 21.1% | viability, T/C (second compound 0.01 µM, first compound 0.0316 µM) 20.5% | viability, T/C (second compound 0.01 µM, first compound 0.1 µM) 19.8% | viability, T/C (second compound 0.01 µM, first compound 0.316 µM) 17.3% | viability, T/C (second compound 0.01 µM, first compound 1 µM) 12.3% | viability, T/C (second compound 0.0316 µM, first compound 0.00316 µM) 33.4% | viability, T/C (second compound 0.0316 µM, first compound 0.01 µM) 26.3% | viability, T/C (second compound 0.0316 µM, first compound 0.0316 µM) 21.5% | viability, T/C (second compound 0.0316 µM, first compound 0.1 µM) 16.5% | viability, T/C (second compound 0.0316 µM, first compound 0.316 µM) 17% | viability, T/C (second compound 0.0316 µM, first compound 1 µM) 12.2% | viability, T/C (second compound 0.1 µM, first compound 0.00316 µM) 22.8% | viability, T/C (second compound 0.1 µM, first compound 0.01 µM) 21.9% | viability, T/C (second compound 0.1 µM, first compound 0.0316 µM) 17.3% | viability, T/C (second compound 0.1 µM, first compound 0.1 µM) 17.6% | viability, T/C (second compound 0.1 µM, first compound 0.316 µM) 16.6% | viability, T/C (second compound 0.1 µM, first compound 1 µM) 11.9% | viability, T/C (second compound 0.316 µM, first compound 0.00316 µM) 19.7% | viability, T/C (second compound 0.316 µM, first compound 0.01 µM) 21.4% | viability, T/C (second compound 0.316 µM, first compound 0.0316 µM) 20% | viability, T/C (second compound 0.316 µM, first compound 0.1 µM) 21.8% | viability, T/C (second compound 0.316 µM, first compound 0.316 µM) 18.1% | viability, T/C (second compound 0.316 µM, first compound 1 µM) 14.2% | viability, T/C (second compound 1 µM, first compound 0.00316 µM) 20.5% | viability, T/C (second compound 1 µM, first compound 0.01 µM) 20.8% | viability, T/C (second compound 1 µM, first compound 0.0316 µM) 22.7% | viability, T/C (second compound 1 µM, first compound 0.1 µM) 20.9% | viability, T/C (second compound 1 µM, first compound 0.316 µM) 18.6% | viability, T/C (second compound 1 µM, first compound 1 µM) 12.4%
